Experimental data as given in patent US20060052415A1, “N-{2-chloro-4-[(6,7-dimethoxy-4-quinolyl)oxy]phenyl}-n'-(5-methyl-3-isoxazolyl)urea salt in crystalline form” (KIRIN BEER KABUSHIKI KAISHA, priority 2002, published 2006).
Entries after “also recorded” stand apart in the source; their conditions may differ.

Tests used:
Format in all cases: physicochemical
[1] = Stability of crystal under heating (73° C.) conditions; settings: stored at 73° C. for 2 weeks
Protocol: (§1) X-ray diffraction patterns of crystals were taken using Cu-Kα radiation (40 kV, 40 mA, λ=1.541 angstroms) with a powder X-ray diffraction apparatus (X-ray diffraction RINT DMAX-2000, manufactured by Rigaku Industrial Corporation) (scanning speed: 5 degrees/min, scanning range: 5.000 to 40.000 degrees, filter: Kβ filter). Based on powder X-ray diffraction patterns thus obtained, peak positions and relative intensity (%) were determined for peaks with a relative intensity of not less than 20%.
Stability of Crystal Under Heating (73° C.) Conditions
(§2) Form I to III crystals of hydrochloride, form I crystal of nitrate, form I and II crystals of sulfate, form I crystal of methanesulfonate, form I and II crystals of p-toluenesulfonate, and form I and II crystals of maleate of N-{2-chloro-4-[(6,7-dimethoxy-4-quinolyl)oxy]phenyl}-N′-(5-methyl-3-isoxazolyl)urea were stored at 73° C. for 2 weeks. […]

[2] = Stability of crystal under high humidity (40° C., 75% RH) conditions; settings: stored at 40° C. and 75% RH for 2 weeks
Protocol: as §1
Stability of Crystal Under High Humidity (40° C., 75% RH) Conditions
as §2, with “under conditions of 40°” for “at 73°”, “C. and 75% RH” for “C.”

[3] = Stability of crystal against physical stress (grinding in a mortar); settings: ground in an agate or porcelain mortar
Protocol: as §1
Stability of Crystal Against Physical Stress
Each of form I to III crystals of hydrochloride, form I crystal of nitrate, form I and II crystals of sulfate, form I crystal of methanesulfonate, form I and II crystals of p-toluenesulfonate, and form I and II crystals of maleate of N-{2-chloro-4-[(6,7-dimethoxy-4-quinolyl)oxy]phenyl}-N′-(5-methyl-3-isoxazolyl)urea was ground in a mortar. In grinding each crystal in the mortar, about 1 mg of each crystal sample was placed and ground in an agate mortar or a porcelain mortar. For each sample before and after grinding, a powder X-ray diffraction chart was measured by method 1 to evaluate the stability of the crystal against physical stress.

[4] = Hygroscopicity of crystal (weight change on storage); settings: 40° C. and 75% RH; for hygroscopicity (level, in words): 2 weeks, based on weight change
Protocol: Hygroscopicity of Crystal
Form I to III crystals of hydrochloride, form I crystal of nitrate, form I and II crystals of sulfate, form I crystal of methanesulfonate, form I and II crystals of p-toluenesulfonate, and form I and II crystals of maleate of N-{2-chloro-4-[(6,7-dimethoxy-4-quinolyl)oxy]phenyl}-N′-(5-methyl-3-isoxazolyl)urea were stored under conditions of 40° C. and 75% RH for 2 weeks. Before and after the storage, the weight of each crystal was measured to determine a difference in weight between before the storage and after the storage.
For each crystal, the hygroscopicity was evaluated based on the weight change.

[5] = listed as form II crystal of hydrochloride, hydrochloride
[6] = listed as form III crystal of hydrochloride, hydrochloride

SMILES: COc1cc2nccc(Oc3ccc(NC(=O)Nc4cc(C)on4)c(Cl)c3)c2cc1OC.O=S(=O)(O)O [Form II crystal of sulfate, N-{2-chloro-4-[(6,7-dimethoxy-4-quinolyl)oxy]phenyl}-N′-(5-methyl-3-isoxazolyl)urea sulfate]
- stability of crystal under high temperature conditions (change of powder X-ray diffraction chart) ([1]; listed as form II crystal of sulfate, sulfate): converted to a novel crystalline form
- stability of crystal under high humidity conditions (change of powder X-ray diffraction chart) ([2]; listed as from II crystal of sulfate, sulfate): converted to a novel crystalline form

SMILES: COc1cc2nccc(Oc3ccc(NC(=O)Nc4cc(C)on4)c(Cl)c3)c2cc1OC.CS(=O)(=O)O [Form I crystal of methanesulfonate, N-{2-chloro-4-[(6,7-dimethoxy-4-quinolyl)oxy]phenyl}-N′-(5-methyl-3-isoxazolyl)urea methanesulfonate]
- stability of crystal under high temperature conditions (change of powder X-ray diffraction chart) [1]: excellent stability
- stability of crystal under high humidity conditions (change of powder X-ray diffraction chart) [2]: excellent stability
- stability of crystal against physical stress (powder X-ray diffraction before and after grinding) [3]: excellent stability
- hygroscopicity (level, in words) [4]: highly hygroscopic
- weight change (hygroscopicity) After 1 week [4]: 2.70%
- weight change (hygroscopicity) After 2 weeks [4]: 2.84%
- weight change (hygroscopicity) After 2 days [4]: 2.58%

SMILES: COc1cc2nccc(Oc3ccc(NC(=O)Nc4cc(C)on4)c(Cl)c3)c2cc1OC.Cc1ccc(S(=O)(=O)O)cc1 [Form II crystal of p-toluenesulfonate, N-{2-chloro-4-[(6,7-dimethoxy-4-quinolyl)oxy]phenyl}-N′-(5-methyl-3-isoxazolyl)urea p-toluenesulfonate]
- stability of crystal under high temperature conditions (change of powder X-ray diffraction chart) [1]: excellent stability
- stability of crystal under high humidity conditions (change of powder X-ray diffraction chart) [2]: excellent stability
- stability of crystal against physical stress (powder X-ray diffraction before and after grinding) [3]: excellent stability
- hygroscopicity (level, in words) ([4]; p-toluenesulfonate): low level of hygroscopicity; also recorded: on a low level
- weight change (hygroscopicity) After 1 week ([4]; p-toluenesulfonate): 0.70%
- weight change (hygroscopicity) After 2 weeks ([4]; p-toluenesulfonate): 0.80%
- weight change (hygroscopicity) After 2 days ([4]; p-toluenesulfonate): 0.84%

SMILES: COc1cc2nccc(Oc3ccc(NC(=O)Nc4cc(C)on4)c(Cl)c3)c2cc1OC.Cl [Form II crystal of hydrochloride, N-{2-chloro-4-[(6,7-dimethoxy-4-quinolyl)oxy]phenyl}-N′-(5-methyl-3-isoxazolyl)urea hydrochloride]
- stability of crystal under high temperature conditions (change of powder X-ray diffraction chart) [1, 5]: excellent stability
- stability of crystal under high humidity conditions (change of powder X-ray diffraction chart) [2, 5]: excellent stability
- stability of crystal against physical stress (powder X-ray diffraction before and after grinding) [3, 5]: excellent stability
- hygroscopicity (level, in words) ([4]; hydrochloride): low level of hygroscopicity; also recorded: on a low level
- weight change (hygroscopicity) After 1 week ([4]; hydrochloride): 0.29%
- weight change (hygroscopicity) After 2 weeks ([4]; hydrochloride): 0.20%
- weight change (hygroscopicity) After 2 days ([4]; hydrochloride): 0.30%

SMILES: COc1cc2nccc(Oc3ccc(NC(=O)Nc4cc(C)on4)c(Cl)c3)c2cc1OC.Cc1ccc(S(=O)(=O)O)cc1 [Form I crystal of p-toluenesulfonate, N-{2-chloro-4-[(6,7-dimethoxy-4-quinolyl)oxy]phenyl}-N′-(5-methyl-3-isoxazolyl)urea p-toluenesulfonate]
- stability of crystal under high temperature conditions (change of powder X-ray diffraction chart) [1]: excellent stability
- stability of crystal under high humidity conditions (change of powder X-ray diffraction chart) [2]: excellent stability
- stability of crystal against physical stress (powder X-ray diffraction before and after grinding) [3]: excellent stability
- hygroscopicity (level, in words) ([4]; p-toluenesulfonate): low level of hygroscopicity; also recorded: on a low level
- weight change (hygroscopicity) After 1 week ([4]; p-toluenesulfonate): 0.24%
- weight change (hygroscopicity) After 2 weeks ([4]; p-toluenesulfonate): 0.25%
- weight change (hygroscopicity) After 2 days ([4]; p-toluenesulfonate): 0.29%

SMILES: COc1cc2nccc(Oc3ccc(NC(=O)Nc4cc(C)on4)c(Cl)c3)c2cc1OC.O=S(=O)(O)O [Form I crystal of sulfate, N-{2-chloro-4-[(6,7-dimethoxy-4-quinolyl)oxy]phenyl}-N′-(5-methyl-3-isoxazolyl)urea sulfate]
- stability of crystal under high temperature conditions (change of powder X-ray diffraction chart) ([1]; listed as form I crystal of sulfate, sulfate): excellent stability
- stability of crystal under high humidity conditions (change of powder X-ray diffraction chart) ([2]; sulfate): converted to a mixture of form I crystal and a novel crystalline form
- stability of crystal against physical stress (powder X-ray diffraction before and after grinding) [3]: lowering in peak intensity
- hygroscopicity (level, in words) [4]: highly hygroscopic
- weight change (hygroscopicity) After 1 week [4]: 4.21%
- weight change (hygroscopicity) After 2 weeks [4]: 4.25%
- weight change (hygroscopicity) After 2 days [4]: 4.20%

SMILES: COc1cc2nccc(Oc3ccc(NC(=O)Nc4cc(C)on4)c(Cl)c3)c2cc1OC.Cl [Form III crystal of hydrochloride, N-{2-chloro-4-[(6,7-dimethoxy-4-quinolyl)oxy]phenyl}-N′-(5-methyl-3-isoxazolyl)urea hydrochloride]
- stability of crystal under high temperature conditions (change of powder X-ray diffraction chart) [1, 6]: converted to form II crystal
- stability of crystal under high humidity conditions (change of powder X-ray diffraction chart) [2, 6]: converted to form I crystal
- stability of crystal against physical stress (powder X-ray diffraction before and after grinding) [3, 6]: lowering in peak intensity
- hygroscopicity (level, in words) ([4]; hydrochloride): highly hygroscopic
- weight change (hygroscopicity) After 1 week ([4]; hydrochloride): 1.49%
- weight change (hygroscopicity) After 2 weeks ([4]; hydrochloride): 1.93%
- weight change (hygroscopicity) After 2 days ([4]; hydrochloride): 1.06%

SMILES: COc1cc2nccc(Oc3ccc(NC(=O)Nc4cc(C)on4)c(Cl)c3)c2cc1OC.O=C(O)/C=C\C(=O)O [Form I crystal of maleate, N-{2-chloro-4-[(6,7-dimethoxy-4-quinolyl)oxy]phenyl}-N′-(5-methyl-3-isoxazolyl)urea maleate]
- stability of crystal under high temperature conditions (change of powder X-ray diffraction chart) [1]: excellent stability
- stability of crystal under high humidity conditions (change of powder X-ray diffraction chart) [2]: excellent stability
- stability of crystal against physical stress (powder X-ray diffraction before and after grinding) ([3]; maleate): lowering in peak intensity
- hygroscopicity (level, in words) ([4]; maleate): low level of hygroscopicity; also recorded: on a low level
- weight change (hygroscopicity) After 1 week ([4]; maleate): 0.41%
- weight change (hygroscopicity) After 2 weeks ([4]; maleate): 0.53%
- weight change (hygroscopicity) After 2 days ([4]; maleate): 0.46%

SMILES: COc1cc2nccc(Oc3ccc(NC(=O)Nc4cc(C)on4)c(Cl)c3)c2cc1OC.O=C(O)/C=C\C(=O)O [Form II crystal of maleate, N-{2-chloro-4-[(6,7-dimethoxy-4-quinolyl)oxy]phenyl}-N′-(5-methyl-3-isoxazolyl)urea maleate]
- stability of crystal under high temperature conditions (change of powder X-ray diffraction chart) [1]: excellent stability
- stability of crystal under high humidity conditions (change of powder X-ray diffraction chart) [2]: excellent stability
- stability of crystal against physical stress (powder X-ray diffraction before and after grinding) ([3]; maleate): excellent stability
- hygroscopicity (level, in words) ([4]; maleate): low level of hygroscopicity; also recorded: on a low level
- weight change (hygroscopicity) After 1 week ([4]; maleate): 0.42%
- weight change (hygroscopicity) After 2 weeks ([4]; maleate): 0.57%
- weight change (hygroscopicity) After 2 days ([4]; maleate): 0.60%
